Structures are written as SMILES.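 Each compound was tested at five concentrations against cells in 96-well plates for 48 hours. At the TGI there is no net growth.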

For 15 compounds, TGI results are on record in PubChem BioAssay (NCI).

The test system of one test is SF-295 CNS. Briefly: DTP human tumour cell line panel, 48 h.
A word on the TGI: it is the concentration at which net growth stops. A high value points to lower sensitivity of the cells. Regarding `Cc1cc(C)nc(NS(=O)(=O)c2ccc(NNC(=O)c3cccc4c(=O)c5ccccc5[nH]c34)cc2)n1`, the TGI was over 100 µM.

`CN1CCN(CN2C(=O)C3C4C=CC(C3C2=O)C2C(=O)N(CN3CCN(C)CC3)C(=O)C42)CC1` (stereo not given) displayed a TGI of over 100 µM.

Compound `Cc1ccc(NC(=S)NNC(=O)c2cc(-c3ccccc3)nc3ccccc23)cc1` registered a concentration for total growth inhibition (TGI) of 17.4 µM.

As for `O=C(O)c1cccnc1`, the concentration for total growth inhibition (TGI) was over 100 µM.

In the case of `Cc1cn(CCCCCOC(=O)NC(CCCN=C(N)N)C(=O)O)c(=O)[nH]c1=O` (stereo not given), the concentration for total growth inhibition (TGI) was over 100 µM.

As to `COc1ccc(C(=O)/C=C/c2ccncc2)cc1OC`, the TGI was found to be 29.9 µM.

For the compound `Cc1ccc(C(=O)N/N=C(\N=Nc2ccccc2[N+](=O)[O-])c2ccc(N(C)C)cc2)cc1`, the TGI is over 100 µM.

`CC1C[C@]2(C)C(=O)Nc3ccccc3[C@@H]2Nc2ccccc21` (stereo not given in full): the concentration for total growth inhibition (TGI) is over 100 µM.

`CC(C)C1=C(Cc2ccccc2)C(=O)O/C1=C\c1cc(Cl)c(O)c(Cl)c1` returned a concentration for total growth inhibition (TGI) of 30.8 µM.

For `O=S(=O)(O)c1ccc(N=Nc2ccc(N=Nc3c(O)ccc4ccccc34)cc2)cc1`, the TGI is over 100 µM.

The next test relates to SR leukemia. As to the kind of experiment: DTP human tumour cell line panel, 48 h.
As to `CC(CCC#N)(CCC#N)C(=O)CC(O)(C(F)(F)F)C(F)(F)F`, the concentration for total growth inhibition (TGI) worked out at 3.77 µM.

With `CC(C)(C)[Si](C)(C)OC1/C(=C/C#N)C(n2ccc(=O)[nH]c2=O)OC1CO` (stereo not given), the concentration for total growth inhibition (TGI) was over 100 µM.

For the compound `CC(=O)Nc1ccc2cc(C)c(=O)[nH]c2n1`, the total growth inhibition concentration (TGI) is over 100 µM.

Take `Nc1nc2c(ncn2Cc2ccc(CO)cc2)c(=O)[nH]1`: the concentration for total growth inhibition (TGI) is over 100 µM.

`O=C(NS(=O)(=O)OCC(Cl)(Cl)Cl)SCCC(F)(F)C(F)(F)C(F)(F)C(F)(F)C(F)(F)C(F)(F)F` came in with a total growth inhibition concentration (TGI) of over 100 µM.

Regarding `Cc1cc(C)nc(NS(=O)(=O)c2ccc(NNC(=O)c3cccc4c(=O)c5ccccc5[nH]c34)cc2)n1`, the TGI was over 100 µM.

`CN1CCN(CN2C(=O)C3C4C=CC(C3C2=O)C2C(=O)N(CN3CCN(C)CC3)C(=O)C42)CC1` (stereo not given): the total growth inhibition concentration (TGI) was over 100 µM.

For the compound `Cc1ccc(NC(=S)NNC(=O)c2cc(-c3ccccc3)nc3ccccc23)cc1`, the TGI was 6.72 µM.

`O=C(O)c1cccnc1` displayed a concentration for total growth inhibition (TGI) of over 100 µM.

`Cc1cn(CCCCCOC(=O)NC(CCCN=C(N)N)C(=O)O)c(=O)[nH]c1=O` (stereo not given) displayed a TGI of 30.8 µM.

For the compound `COc1ccc(C(=O)/C=C/c2ccncc2)cc1OC`, the TGI is over 100 µM.

For the compound `Cc1ccc(C(=O)N/N=C(\N=Nc2ccccc2[N+](=O)[O-])c2ccc(N(C)C)cc2)cc1`, the TGI was over 100 µM.

Regarding `CC1C[C@]2(C)C(=O)Nc3ccccc3[C@@H]2Nc2ccccc21` (stereo not given in full), the TGI came to 41.4 µM.

For `CC(C)C1=C(Cc2ccccc2)C(=O)O/C1=C\c1cc(Cl)c(O)c(Cl)c1`, the TGI was determined as 66.8 µM.

In the case of `O=S(=O)(O)c1ccc(N=Nc2ccc(N=Nc3c(O)ccc4ccccc34)cc2)cc1`, the concentration for total growth inhibition (TGI) was over 100 µM.

The test system of the next test is COLO 205 colon. Briefly: DTP human tumour cell line panel, 48 h.
Compound `CC(CCC#N)(CCC#N)C(=O)CC(O)(C(F)(F)F)C(F)(F)F` returned a TGI of 4.9 µM.

As for `CC(C)(C)[Si](C)(C)OC1/C(=C/C#N)C(n2ccc(=O)[nH]c2=O)OC1CO` (stereo not given), the TGI is over 100 µM.

Compound `CC(=O)Nc1ccc2cc(C)c(=O)[nH]c2n1` came in with a TGI of over 100 µM.

The compound `Nc1nc2c(ncn2Cc2ccc(CO)cc2)c(=O)[nH]1` displayed a TGI of over 100 µM.

Turning to `O=C(NS(=O)(=O)OCC(Cl)(Cl)Cl)SCCC(F)(F)C(F)(F)C(F)(F)C(F)(F)C(F)(F)C(F)(F)F`, the TGI amounted to 33.5 µM.

The compound `Cc1cc(C)nc(NS(=O)(=O)c2ccc(NNC(=O)c3cccc4c(=O)c5ccccc5[nH]c34)cc2)n1` displayed a TGI of over 100 µM.

For the compound `CN1CCN(CN2C(=O)C3C4C=CC(C3C2=O)C2C(=O)N(CN3CCN(C)CC3)C(=O)C42)CC1` (stereo not given), the concentration for total growth inhibition (TGI) was over 100 µM.

Regarding `Cc1ccc(NC(=S)NNC(=O)c2cc(-c3ccccc3)nc3ccccc23)cc1`, the TGI worked out at 35.3 µM.

`O=C(O)c1cccnc1` registered a total growth inhibition concentration (TGI) of over 100 µM.

Consider `Cc1cn(CCCCCOC(=O)NC(CCCN=C(N)N)C(=O)O)c(=O)[nH]c1=O` (stereo not given), for which the concentration for total growth inhibition (TGI) was determined as 63.2 µM.

For `COc1ccc(C(=O)/C=C/c2ccncc2)cc1OC`, the TGI worked out at 29.1 µM.

`Cc1ccc(C(=O)N/N=C(\N=Nc2ccccc2[N+](=O)[O-])c2ccc(N(C)C)cc2)cc1` displayed a total growth inhibition concentration (TGI) of over 100 µM.

Consider `CC1C[C@]2(C)C(=O)Nc3ccccc3[C@@H]2Nc2ccccc21` (stereo not given in full), for which the total growth inhibition concentration (TGI) was determined as 34 µM.

`CC(C)C1=C(Cc2ccccc2)C(=O)O/C1=C\c1cc(Cl)c(O)c(Cl)c1`: the TGI stood at 35.3 µM.

`O=S(=O)(O)c1ccc(N=Nc2ccc(N=Nc3c(O)ccc4ccccc34)cc2)cc1` yielded a TGI of over 100 µM.

The next test deals with CAKI-1 renal. As to the kind of experiment: DTP human tumour cell line panel, 48 h.
`CC(CCC#N)(CCC#N)C(=O)CC(O)(C(F)(F)F)C(F)(F)F`: the concentration for total growth inhibition (TGI) was 8.32 µM.

`CC(C)(C)[Si](C)(C)OC1/C(=C/C#N)C(n2ccc(=O)[nH]c2=O)OC1CO` (stereo not given) registered a TGI of over 100 µM.

Consider `CC(=O)Nc1ccc2cc(C)c(=O)[nH]c2n1`, for which the TGI was over 100 µM.

`Nc1nc2c(ncn2Cc2ccc(CO)cc2)c(=O)[nH]1`: the concentration for total growth inhibition (TGI) was over 100 µM.

`O=C(NS(=O)(=O)OCC(Cl)(Cl)Cl)SCCC(F)(F)C(F)(F)C(F)(F)C(F)(F)C(F)(F)C(F)(F)F` returned a concentration for total growth inhibition (TGI) of 92.7 µM.

Regarding `Cc1cc(C)nc(NS(=O)(=O)c2ccc(NNC(=O)c3cccc4c(=O)c5ccccc5[nH]c34)cc2)n1`, the total growth inhibition concentration (TGI) is over 100 µM.

`CN1CCN(CN2C(=O)C3C4C=CC(C3C2=O)C2C(=O)N(CN3CCN(C)CC3)C(=O)C42)CC1` (stereo not given) yielded a TGI of over 100 µM.

In turn, `Cc1ccc(NC(=S)NNC(=O)c2cc(-c3ccccc3)nc3ccccc23)cc1` returned a TGI of 45.9 µM.

On to `O=C(O)c1cccnc1`, for which the total growth inhibition concentration (TGI) is over 100 µM.

In turn, `Cc1cn(CCCCCOC(=O)NC(CCCN=C(N)N)C(=O)O)c(=O)[nH]c1=O` (stereo not given) registered a TGI of over 100 µM.

`COc1ccc(C(=O)/C=C/c2ccncc2)cc1OC` had a TGI of 29.2 µM.

In the case of `Cc1ccc(C(=O)N/N=C(\N=Nc2ccccc2[N+](=O)[O-])c2ccc(N(C)C)cc2)cc1`, the TGI is over 100 µM.

Turning to `CC1C[C@]2(C)C(=O)Nc3ccccc3[C@@H]2Nc2ccccc21` (stereo not given in full), the total growth inhibition concentration (TGI) amounted to 74.3 µM.

The compound `CC(C)C1=C(Cc2ccccc2)C(=O)O/C1=C\c1cc(Cl)c(O)c(Cl)c1` returned a concentration for total growth inhibition (TGI) of 29.9 µM.

Regarding `O=S(=O)(O)c1ccc(N=Nc2ccc(N=Nc3c(O)ccc4ccccc34)cc2)cc1`, the total growth inhibition concentration (TGI) was over 100 µM.

A further test concerns OVCAR-8 ovarian. As to the kind of experiment: DTP human tumour cell line panel, 48 h.
`CC(CCC#N)(CCC#N)C(=O)CC(O)(C(F)(F)F)C(F)(F)F` showed a TGI of 16.6 µM.

With `CC(C)(C)[Si](C)(C)OC1/C(=C/C#N)C(n2ccc(=O)[nH]c2=O)OC1CO` (stereo not given), the total growth inhibition concentration (TGI) was over 100 µM.

On to `CC(=O)Nc1ccc2cc(C)c(=O)[nH]c2n1`, for which the total growth inhibition concentration (TGI) was over 100 µM.

As for `Nc1nc2c(ncn2Cc2ccc(CO)cc2)c(=O)[nH]1`, the TGI was over 100 µM.

Consider `O=C(NS(=O)(=O)OCC(Cl)(Cl)Cl)SCCC(F)(F)C(F)(F)C(F)(F)C(F)(F)C(F)(F)C(F)(F)F`, for which the TGI is over 100 µM.

`Cc1cc(C)nc(NS(=O)(=O)c2ccc(NNC(=O)c3cccc4c(=O)c5ccccc5[nH]c34)cc2)n1` came in with a TGI of over 100 µM.

In turn, `CN1CCN(CN2C(=O)C3C4C=CC(C3C2=O)C2C(=O)N(CN3CCN(C)CC3)C(=O)C42)CC1` (stereo not given) yielded a total growth inhibition concentration (TGI) of over 100 µM.

`Cc1ccc(NC(=S)NNC(=O)c2cc(-c3ccccc3)nc3ccccc23)cc1` had a total growth inhibition concentration (TGI) of 47.8 µM.

In turn, `O=C(O)c1cccnc1` displayed a TGI of over 100 µM.

Turning to `Cc1cn(CCCCCOC(=O)NC(CCCN=C(N)N)C(=O)O)c(=O)[nH]c1=O` (stereo not given), the concentration for total growth inhibition (TGI) was over 100 µM.

In the case of `COc1ccc(C(=O)/C=C/c2ccncc2)cc1OC`, the concentration for total growth inhibition (TGI) came out at 28.6 µM.

Consider `Cc1ccc(C(=O)N/N=C(\N=Nc2ccccc2[N+](=O)[O-])c2ccc(N(C)C)cc2)cc1`, for which the total growth inhibition concentration (TGI) was over 100 µM.

Regarding `CC1C[C@]2(C)C(=O)Nc3ccccc3[C@@H]2Nc2ccccc21` (stereo not given in full), the TGI was found to be 28.9 µM.

As for `CC(C)C1=C(Cc2ccccc2)C(=O)O/C1=C\c1cc(Cl)c(O)c(Cl)c1`, the concentration for total growth inhibition (TGI) worked out at 42.4 µM.

As for `O=S(=O)(O)c1ccc(N=Nc2ccc(N=Nc3c(O)ccc4ccccc34)cc2)cc1`, the total growth inhibition concentration (TGI) was over 100 µM.
